Experiments:
A498 [1] = assay: In vitro cytotoxic activity against renal (A498) cell line; format: functional; conditions: Homo sapiens
A498 [2] = assay: In vitro cytotoxic activity against renal (A498) cell line at a concentration of 10e-5 M; format: functional, Homo sapiens
DU-145 [3] = assay: In vitro cytotoxic activity against prostate (DU145) cell line; format: functional; conditions: Homo sapiens
DU-145 [4] = assay: In vitro cytotoxic activity against prostate (DU145) cell line at a concentration of 10e-5 M; format: functional, Homo sapiens
M14 [5] = assay: In vitro cytotoxic activity against Melanoma (M14) cell line at a concentration of 10e-5 M; format: functional, Homo sapiens
MCF7 [6] = assay: In vitro cytotoxic activity against breast (MCF-7/ADR) cell line; format: functional; conditions: Homo sapiens
MCF7 [7] = assay: In vitro cytotoxic activity against breast (MCF-7/ADR) cell line at a concentration of 10e-5 M; format: functional, Homo sapiens
M14 [8] = assay: In vitro cytotoxic activity against Melanoma (M14) cell line; format: functional; conditions: Homo sapiens
SK-OV-3 [9] = assay: In vitro cytotoxic activity against Ovarian (SK-OV3) cell line; format: functional; conditions: Homo sapiens
SW-620 [10] = assay: In vitro cytotoxic activity against colon (SW620) cell line; format: functional; conditions: Homo sapiens
SW-620 [11] = assay: In vitro cytotoxic activity against colon (SW620) cell line at a concentration of 10e-5 M; format: functional, Homo sapiens
U-251 [12] = assay: In vitro cytotoxic activity against CNS(U251) cell line; format: functional; conditions: Homo sapiens
U-251 [13] = assay: In vitro cytotoxic activity against CNS(U251) cell line at a concentration of 10e-5 M; format: functional, Homo sapiens
SK-OV-3 [14] = assay: In vitro cytotoxic activity against Ovarian (SK-OV3) cell line at a concentration of 10e-5 M; format: functional, Homo sapiens
NCI-H522 [15] = assay: In vitro cytotoxic activity against lung (H522) cell line; conditions: Homo sapiens
NCI-H522 [16] = assay: In vitro cytotoxic activity against lung (H522) cell line at a concentration of 10e-5 M
NCI-H522 [17] = assay: In vitro cytotoxic activity against lung (H522) cell line at a concentration of 10e-5 M; format: functional, Homo sapiens
Mus musculus [18] = assay: In vivo potential in Swiss Albino Mice using modified hollow fiber assay at the dose of 150 mg/kg as total score; format: functional
Mus musculus [19] = assay: In vivo potential in Swiss Albino Mice using modified hollow fiber assay at the dose of 150 mg/kg by ip administration; format: functional; conditions: route intraperitoneal
Mus musculus [20] = assay: In vivo potential in Swiss Albino Mice using modified hollow fiber assay at the dose of 150 mg/kg by sc administration; format: functional; conditions: route subcutaneous
Mus musculus [21] = assay: In vivo potential in Swiss Albino Mice using modified hollow fiber assay at the dose of 75 mg/kg as total score; format: functional
Mus musculus [22] = assay: In vivo potential in Swiss Albino Mice using modified hollow fiber assay at the dose of 75 mg/kg by ip administration; format: functional; conditions: route intraperitoneal
Mus musculus [23] = assay: In vivo potential in Swiss Albino Mice using modified hollow fiber assay at the dose of 75 mg/kg by sc administration; format: functional; conditions: route subcutaneous
Mus musculus [24] = assay: In vivo potential in Swiss Albino Mice using modified hollow fiber assay at the dose of 100 mg/kg as total score; format: functional
Mus musculus [25] = assay: In vivo potential in Swiss Albino Mice using modified hollow fiber assay at the dose of 100 mg/kg by ip administration; format: functional; conditions: route intraperitoneal
Mus musculus [26] = assay: In vivo potential in Swiss Albino Mice using modified hollow fiber assay at the dose of 100 mg/kg by sc administration; format: functional; conditions: route subcutaneous
Mus musculus [27] = assay: In vivo potential in Swiss Albino Mice using modified hollow fiber assay at the dose of 50 mg/kg as total score; format: functional
Mus musculus [28] = assay: In vivo potential in Swiss Albino Mice using modified hollow fiber assay at the dose of 50 mg/kg by ip administration; format: functional; conditions: route intraperitoneal
Mus musculus [29] = assay: In vivo potential in Swiss Albino Mice using modified hollow fiber assay at the dose of 50 mg/kg by sc administration; format: functional; conditions: route subcutaneous
NCI-H522 [30] = assay: In vitro cytotoxicity against H522 (human adenocarcinoma) cell line at a concentration of 10e-5 M.

Work on CC(C)(C)OC(=O)NCC(=O)O[C@@H]1CC2C(C)(C)C(=O)C=C[C@]2(C)C2CC[C@]3(C)C(=CC[C@H]3c3ccoc3)[C@@]21C (some centres undefined) yielded a GI50 (A498 [1]) of 12 µM, a Growth (A498 [2]) of 33% and a GI50 (DU-145 [3]) of 20 µM. For the same compound, the Growth (DU-145 [4]) was 63%, the Growth (M14 [5]) was 58% and the GI50 (MCF7 [6]) was 60 µM. For the same compound, the Growth (MCF7 [7]) was 62%, the GI50 (M14 [8]) was 20 µM and the GI50 (SK-OV-3 [9]) was 65 µM. It also gave a GI50 (SW-620 [10]) of 20 µM, a Growth (SW-620 [11]) of 67% and a GI50 (U-251 [12]) of 50 µM. For the same compound, the Growth (U-251 [13]) was 53%, the Growth (SK-OV-3 [14]) was 48% and the GI50 (NCI-H522 [15]) was 15 µM. The Growth (NCI-H522 [16]) was 53%.
Work on CC1(C)C(=O)C=C[C@@]2(C)C1CC(=O)[C@@]1(C)C3=CC[C@@H](c4ccoc4)[C@]3(C)CCC12 (some centres undefined) yielded a GI50 (A498 [1]) of 4 µM, a Growth (A498 [2]) of 9% and a GI50 (DU-145 [3]) of 6 µM. For the same compound, the Growth (DU-145 [4]) was 7%, the Growth (M14 [5]) was 7% and the GI50 (MCF7 [6]) was 3 µM. The Growth (MCF7 [7]) was 30%, the GI50 (M14 [8]) was 0.6 µM and the GI50 (SK-OV-3 [9]) was 7.5 µM. The GI50 (SW-620 [10]) was 3 µM, the Growth (SW-620 [11]) was 3% and the GI50 (U-251 [12]) was 6 µM. The Growth (NCI-H522 [17]) was 43%, the Growth (U-251 [13]) was 27% and the Growth (SK-OV-3 [14]) was 43%. For the same compound, the GI50 (NCI-H522 [15]) was 25 µM.
CC(=O)O[C@@H]1CC2C(C)(C)C(=O)C=C[C@]2(C)C2CC[C@]3(C)C(=CC[C@H]3c3ccoc3)[C@@]21C (some centres undefined) showed a GI50 (A498 [1]) of 2 µM, a Growth (A498 [2]) of 23% and a GI50 (DU-145 [3]) of 0.05 µM. It also gave a Growth (DU-145 [4]) of -6%, a Growth (M14 [5]) of -6% and a GI50 (MCF7 [6]) of 0.06 µM. The Growth (MCF7 [7]) was -18%, the GI50 (M14 [8]) was 0.08 µM and the Score (Mus musculus [18]) was 48. The Score (Mus musculus [19]) was 24, the Score (Mus musculus [20]) was 24 and the Score (Mus musculus [21]) was 36. The Score (Mus musculus [22]) was 14, the Score (Mus musculus [23]) was 12 and the GI50 (SK-OV-3 [9]) was 5 µM. It also gave a GI50 (SW-620 [10]) of 7 µM, a Growth (SW-620 [11]) of 29% and a GI50 (U-251 [12]) of 2.5 µM. For the same compound, the Growth (U-251 [13]) was -4%, the Growth (SK-OV-3 [14]) was 30% and the GI50 (NCI-H522 [15]) was 6 µM. The Growth (NCI-H522 [16]) was 29%.
Compound CC(=O)O[C@@H]1CC2C(C)(C)/C(=N/OCCN3CCCC3)C=C[C@]2(C)C2CC[C@]3(C)C(=CC[C@H]3c3ccoc3)[C@@]21C (some centres undefined) has a GI50 (A498 [1]) of 4 µM, a Growth (A498 [2]) of -16% and a GI50 (DU-145 [3]) of 6 µM. The Growth (DU-145 [4]) was 32%, the Growth (M14 [5]) was 26% and the GI50 (MCF7 [6]) was 3 µM. For the same compound, the Growth (MCF7 [7]) was 22%, the GI50 (M14 [8]) was 5 µM and the Score (Mus musculus [24]) was 46. It also gave a Score (Mus musculus [25]) of 24, a Score (Mus musculus [26]) of 22 and a Score (Mus musculus [27]) of 22. It also gave a Score (Mus musculus [28]) of 14, a Score (Mus musculus [29]) of 8 and a GI50 (SK-OV-3 [9]) of 4 µM. For the same compound, the GI50 (SW-620 [10]) was 3 µM, the Growth (SW-620 [11]) was -51% and the GI50 (U-251 [12]) was 4 µM. The Growth (U-251 [13]) was -24%, the Growth (SK-OV-3 [14]) was -35% and the GI50 (NCI-H522 [15]) was 4 µM. For the same compound, the Growth (NCI-H522 [30]) was -13.9%.
With CC1(C)C(=O)C=C[C@@]2(C)C1C[C@@H](OC(=O)CCl)[C@@]1(C)C3=CC[C@@H](c4ccoc4)[C@]3(C)CCC21 (some centres undefined) the GI50 (A498 [1]) was 4 µM, the Growth (A498 [2]) was -8% and the GI50 (DU-145 [3]) was 5 µM. The Growth (DU-145 [4]) was 13%, the Growth (M14 [5]) was -3% and the GI50 (MCF7 [6]) was 3 µM. The Growth (MCF7 [7]) was -2%, the GI50 (M14 [8]) was 5 µM and the GI50 (SK-OV-3 [9]) was 5 µM. For the same compound, the GI50 (SW-620 [10]) was 5 µM, the Growth (SW-620 [11]) was 12% and the GI50 (U-251 [12]) was 6 µM. For the same compound, the Growth (U-251 [13]) was 22%, the Growth (SK-OV-3 [14]) was 14% and the GI50 (NCI-H522 [15]) was 4 µM. It also gave a Growth (NCI-H522 [16]) of 5%.
Work on CC(=O)O[C@H]1C[C@@H](OC(C)=O)C(C)(C)C2C[C@@H](OC(C)=O)[C@@]3(C)C4=CC[C@@H](c5ccoc5)[C@]4(C)CCC3[C@]21C (some centres undefined) yielded a GI50 (A498 [1]) of 15 µM, a Growth (A498 [2]) of -5% and a GI50 (DU-145 [3]) of 4 µM. For the same compound, the Growth (DU-145 [4]) was -19%, the Growth (M14 [5]) was -22% and the GI50 (MCF7 [6]) was 4 µM. For the same compound, the Growth (MCF7 [7]) was 38%, the GI50 (M14 [8]) was 5 µM and the Score (Mus musculus [18]) was 48. The Score (Mus musculus [19]) was 24, the Score (Mus musculus [20]) was 24 and the Score (Mus musculus [21]) was 18. The Score (Mus musculus [22]) was 12, the Score (Mus musculus [23]) was 6 and the GI50 (SK-OV-3 [9]) was 9 µM. It also gave a GI50 (SW-620 [10]) of 3 µM, a Growth (SW-620 [11]) of -60% and a GI50 (U-251 [12]) of 30 µM. The Growth (U-251 [13]) was -24%, the Growth (SK-OV-3 [14]) was 42% and the GI50 (NCI-H522 [15]) was 40 µM. It also gave a Growth (NCI-H522 [30]) of 8%.

Reference: ChEMBL document CHEMBL1136447, “Biological investigation and structure-activity relationship studies on azadirone from Azadirachta indica A. Juss” (2003)
